Test results reported in patent publication US20210315893A1 (Galapagos NV, priority 2017, published 2021).

Assays:
[1] = target: T1, human GPCR sphingosine 1-phosphate receptor 1 (Homo sapiens, UniProt P21453); test: S1PR1 selectivity Ca2+ flux assay (antagonist readout); assay type: cell-based; details: antagonist readout, CHO cells overexpressing human S1PR1 and Gq, S1P at EC80 (6 nM); read-out: S1P1 EC50 (nM), S1P1 antagonist EC50
T1 construct: host or cells: CHO
Summary of the method: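 Antagonist mode: S1P challenge follows 15 min compound preincubation at 37 °C. Cells are CHO stably expressing human S1PR1, serum-starved 1 h (0.1% FAF BSA), loaded with Fluo 8. Peak-over-baseline fluorescence ratio is normalized to positive/negative controls; IC50 from logistic curve fit.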

[2] = test system: HFL-1 cells; test: IL-8 production assay (S1P induced IL-8); assay type: cell-based; details: Homo sapiens, HFL1; S1P (1 μM) induced IL-8 in HFL-1 cells, starvation medium without HSA; read-out: IL8 EC50
Summary of the method: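 HFL-1 fibroblasts in low-serum medium were pretreated 1 h with a 10-point 1/3 series of compound starting at 30 μM (0.3% DMSO).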

[3] = test system: bleomycin induced pulmonary fibrosis in mice; test: Prophylactic bleomycin induced pulmonary fibrosis 14-day mice model; assay type: in vivo; details: 10 mg/kg BID
Method: The aim of the study is totest the efficacy of atest compound at three different doses ina 14-day model of bleomycin induced pulmonary fibrosis in mice.
(§1) This study is carried out on C527BL/6N male mice, supplied by Charles River, Italy, which are acclimatized for at least 5 days in an environment maintained at 22° C., at 55% relative humidity, with 15-20 air changes per h under light cycles of 12 h. Mice pelleted food and water are provided ad libitum.
The solvent for the test solutions is prepared by adding 0.5 g of hydroxyethylcellulose (Natrosol) into 500 mL Aqua distillate (0.1%) under continuous stirring without heating for 5 h on a magnetic stirrer. Anesthetic solution is prepared by adding 1 mL of Narketan (Narketan 10, Vetoquinol, Bern, Switzerland, 03605877535982) and 0.5 mL of Rompun (Rompun, 2%. Bayer, Leverkusen, Germany) into 9 mL saline. The resulting solution is administered at 10 mL/kg.
Prior to i.n administration, mice are anesthetized i.p. with the anesthetic solution described above.
Fresh pirfenidone formulation is prepared daily in 0.1% Natrosol formulations to a final concentration of 5 mg/mL. […]
(§2) Pulmonary histological changes are assessed using Matsuse modification of Ashcroft score (Ashcroft et al., 1988; Matsuse et al., 1999). […]

[4] = test system: bleomycin induced pulmonary fibrosis in mice; test: Therapeutic bleomycin induced pulmonary fibrosis 21-day mice model; assay type: in vivo; details: 10 mg/kg BID
Method: The aim of the study is to test the efficacy of a test compound at three different doses in a 21-day model of bleomycin induced pulmonary fibrosis in mice.
as §1, with “C57BL/6N” for “C527BL/6N”
The solvent for the test solutions is prepared by adding 0.5 g of hydroxyethylcellulose (Natrosol) into 500 mL Aqua distillate (0.1%) under continuous stirring without heating for 5 h on a magnetic stirrer.
Fresh Nintedanib formulation is prepared daily in 0.1% Natrosol formulations to a final concentration of 5 mg/mL. Before dosing, animals are weighed and the Nintedanib amount administered is adjusted accordingly to individual weights corresponding to 10 mL/kg body weight, once daily p.o.,
Finally, test compound solutions are prepared by dissolving the suitable amount of said test compound in PEG 400 (20% of the final volume) then MC 0.5% (80% of the final volume) to reach final concentrations of 1 mg/mL, 0.3 mg/mL and 0.1 mg/mL, thus yielding compound for a doses of 10 mg/kg, 3 mg/kg and 1 mg/kg. […]
as §2

[5] = test system: HFL-1 cells; test: IL8 assay in the presence of Human Serum Albumin; details: HFL1, read-out: HSA IL8 EC50
[6] = target: T2, human GPCR sphingosine 1-phosphate receptor 2 (Homo sapiens, UniProt O95136); test: S1PR2 antagonist Ca2+ flux assay; assay type: cell-based; details: antagonist mode, CHO-S1PR2 cells, S1P at EC80, Ca2+ fluorescence; read-out: S1P2 EC50 (nM), S1P2 antagonist EC50
T2 construct: host or cells: CHO
T2 sequence (O95136 whole entry): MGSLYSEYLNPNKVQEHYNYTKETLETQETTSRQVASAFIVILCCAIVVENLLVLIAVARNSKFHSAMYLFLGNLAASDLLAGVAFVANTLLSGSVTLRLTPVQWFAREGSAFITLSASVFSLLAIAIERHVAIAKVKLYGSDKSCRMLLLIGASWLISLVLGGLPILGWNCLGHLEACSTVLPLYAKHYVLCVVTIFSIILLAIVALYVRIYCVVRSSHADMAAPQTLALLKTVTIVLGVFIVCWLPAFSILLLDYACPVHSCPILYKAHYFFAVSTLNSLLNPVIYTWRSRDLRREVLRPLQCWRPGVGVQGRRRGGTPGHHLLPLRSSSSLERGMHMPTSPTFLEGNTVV
Summary of the method: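 Antagonist mode: 15 min after compound addition, S1P (EC80) stimulates Fluo8-loaded, 1 h-starved CHO-S1PR2 cells, Ca2+ read over 3 min; a prior 3-min read checks compound agonism. EC50 from peak/baseline fluorescence ratio, normalised versus vehicle and S1P EC50 (antagonist) or EC100 (agonist).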

[7] = target: T3, human GPCR sphingosine 1-phosphate receptor 5 (Homo sapiens, UniProt Q9H228); test: S1PR5 selectivity Ca2+ flux assay (antagonist readout); assay type: cell-based; details: CHO cells overexpressing human S1PR5 and Gq, agonist at EC80 (20 nM), read-out: S1P5 EC50 (nM), S1P5 antagonist EC50
T3 construct: host or cells: CHO
T3 sequence (Q9H228 whole entry): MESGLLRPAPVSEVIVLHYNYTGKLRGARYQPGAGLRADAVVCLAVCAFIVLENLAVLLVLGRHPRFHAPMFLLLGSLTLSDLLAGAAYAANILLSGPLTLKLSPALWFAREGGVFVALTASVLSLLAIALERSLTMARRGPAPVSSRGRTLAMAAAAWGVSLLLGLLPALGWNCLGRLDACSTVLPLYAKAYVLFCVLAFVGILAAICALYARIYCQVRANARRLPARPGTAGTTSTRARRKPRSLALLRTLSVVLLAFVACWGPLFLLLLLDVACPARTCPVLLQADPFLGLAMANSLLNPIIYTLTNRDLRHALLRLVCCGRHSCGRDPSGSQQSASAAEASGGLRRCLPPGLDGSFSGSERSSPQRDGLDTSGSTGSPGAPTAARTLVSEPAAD
Summary of the method: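 Antagonist readout: after 15 min compound preincubation at 37° C, human S1PR5/Gq CHO cells loaded with Fluo 8 dye received an EC80 challenge of S1PR5-specific agonist, and fluorescence was recorded for 3 min. Maximal-over-background ratios, normalized as % inhibition, gave IC50 by logistic fit.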

[8] = target: T4, S1PR2 (Homo sapiens, UniProt O95136); test: S1PR2 binding assay (competition with radioactively labeled S1P, SpA); details: membranes from stable cell line over expressing S1PR2, SpA beads; read-out: S1P2 EC50 (nM), S1PR2 binding EC50
T4 construct: expressed in transfected cells
T4 sequence (O95136 whole entry): as the sequence (O95136 whole entry) above
Summary of the method: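 Scintillation proximity read-out after 2 h room-temperature incubation of compound, [3H]S1P and S1PR2-overexpressing cell membranes on WGA-coated beads. Buffer: 20 mM Tris pH 7.5, 100 mM NaCl, 10 mM MgCl2, 1 mM Na3VO4, 0.4% fatty-acid-free BSA; plates counted immediately after centrifugation.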

T1 sequence (P21453 whole entry): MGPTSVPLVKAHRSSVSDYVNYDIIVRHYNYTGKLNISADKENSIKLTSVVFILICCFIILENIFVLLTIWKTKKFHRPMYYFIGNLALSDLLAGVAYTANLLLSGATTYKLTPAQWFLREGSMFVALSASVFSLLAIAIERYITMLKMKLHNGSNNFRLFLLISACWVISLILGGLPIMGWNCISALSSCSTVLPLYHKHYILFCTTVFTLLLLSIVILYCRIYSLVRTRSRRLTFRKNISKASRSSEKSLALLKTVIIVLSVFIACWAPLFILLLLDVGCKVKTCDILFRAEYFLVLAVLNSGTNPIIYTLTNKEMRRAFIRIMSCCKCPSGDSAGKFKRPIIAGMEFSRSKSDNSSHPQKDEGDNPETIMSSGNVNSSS

EC50 [1] [nM]	EC50 [2] [nM]	EC50 [5] [nM]	EC50 [6] [nM]	EC50 [7] [nM]	EC50 [8] [nM]	Structure (SMILES)	Ashcroft score difference [3]	Ashcroft score difference [4]
3620	5.73	51.8				O=C(O)Cn1nc(Cc2nc3cc(Cl)c(OCC4CC4)cc3[nH]2)c2ccccc2c1=O [Compound 115, 2-[4-[[5-chloro-6-(cyclopropylmethoxy)-1H-benzimidazol-2-yl]methyl]-1-oxo-phthalazin-2-yl]acetic acid]	statistically significant Ashcroft score difference	statistically significant Ashcroft score difference
≥ 19800	105	251	120	19800	221	N#Cc1cc2[nH]c(Cc3nn(CC(=O)N4CC[C@H](O)C4)c(=O)c4ccccc34)nc2cc1OCC(F)F [compound 13, 6-(2,2-difluoro-ethoxy)-2-[[3-[2-[(3S)-3-hydroxy-pyrrolidin-1-yl]-2-oxo-ethyl]-4-oxo-phthalazin-1-yl]methyl]-3H-benzimidazole-5-carbonitrile]		
≥ 19800	24.2	343	5.57	19800	378	CC(C(=O)NS(C)(=O)=O)c1nn(Cc2cn3cc(OCC4CC4)c(Cl)cc3n2)c2ccccc2c1=O (centres unmarked) [compound 15, 2-[1-[[7-chloro-6-(cyclopropyl-methoxy)imidazo-[1,2-a]pyridin-2-yl]methyl]-4-oxo-cinnolin-3-yl]-N-methylsulfonyl-propanamide]		
≥ 19800	58.1	293	14.6	19800	306	N#Cc1ccc2c(=O)n(CC(=O)O)nc(Cc3nc4cc(Cl)c(OCC(F)F)cc4[nH]3)c2c1 [compound 23, 2-[4-[[5-chloro-6-(2,2-difluoro-ethoxy)-1H-benzimidazol-2-yl]methyl]-6-cyano-1-oxo-phthalazin-2-yl]acetic acid]		
